One test deals with E. coli 3Y-9. Put plainly: MIC by doubling dilution, colistin sulfate-susceptible E. coli 3Y-9. The test is classed as cell-based, Escherichia coli. The settings on record: for In vitro minimum inhibitory concentration (MIC) of the substance alone: E. coli 3Y-9, colistin sulfate-susceptible, derivatives as hydrochlorides; for In vitro MIC of colistin sulfate in the presence of the substituted benzylideneguanidine derivative: E. coli 3Y-9, culture comprised 20.0 ppm of the derivative (hydrochloride), colistin sulfate serially diluted.

Another test relates to E. coli 2S-19. Put plainly: MIC by doubling dilution, colistin sulfate-susceptible E. coli 2S-19. The test is classed as cell-based, Escherichia coli. The settings on record: for In vitro minimum inhibitory concentration (MIC) of the substance alone: E. coli 2S-19, colistin sulfate-susceptible, derivatives as hydrochlorides; for In vitro MIC of colistin sulfate in the presence of the substituted benzylideneguanidine derivative: E. coli 2S-19, culture comprised 20.0 ppm of the derivative (hydrochloride), colistin sulfate serially diluted.

The next test relates to E. coli 5W-7. Put plainly: MIC by doubling dilution, colistin sulfate-susceptible E. coli 5W-7. Type of test: cell-based, Escherichia coli. The settings on record: for In vitro minimum inhibitory concentration (MIC) of the substance alone: E. coli 5W-7, colistin sulfate-susceptible, derivatives as hydrochlorides; for In vitro MIC of colistin sulfate in the presence of the substituted benzylideneguanidine derivative: E. coli 5W-7, culture comprised 20.0 ppm of the derivative (hydrochloride), colistin sulfate serially diluted.

In another test the test system is E. coli 3B-24. Put plainly: MIC by doubling dilution, colistin sulfate-susceptible E. coli 3B-24. Type of test: cell-based, Escherichia coli. The settings on record: for In vitro minimum inhibitory concentration (MIC) of the substance alone: E. coli 3B-24, colistin sulfate-susceptible, derivatives as hydrochlorides; for In vitro MIC of colistin sulfate in the presence of the substituted benzylideneguanidine derivative: E. coli 3B-24, culture comprised 20.0 ppm of the derivative (hydrochloride), colistin sulfate serially diluted.

The next test has as its system weanling piglets. Put plainly: Synergy of derivatives and colistin sulfate in the feed for weanling piglets. Type of test: in vivo, Duroc×Landrace×Large crossbred lean weanling piglets. The settings on record: creep feed with 20 ppm colistin sulfate and 150 ppm derivative (hydrochloride), ten days. On the procedure:
90 28-day-aged Duroc×Landrace×Large crossbred lean weanling piglets similar in weight were divided into 9 groups, 10 piglets in each group. For each group, colistin sulfate and/or various substituted benzylideneguanidine derivatives were added into the antibiotic-free creep feed. The piglets were given ad libitum access to feed and water during the experiment. Weight gain, feed efficiency and diarrhea rate of each group within ten days were recorded.

For the next test, the system named is E. coli 2G-7. Put plainly: MIC by doubling dilution, colistin sulfate-resistant E. coli 2G-7. The conditions noted are these: for In vitro minimum inhibitory concentration (MIC) of the substance alone: E. coli 2G-7, colistin sulfate-resistant, derivatives as hydrochlorides; for In vitro MIC of colistin sulfate in the presence of the substituted benzylideneguanidine derivative: E. coli 2G-7, resistant, culture comprised 20.0 ppm of the derivative (hydrochloride).

A further test has as its system E. coli 5F-1. Put plainly: MIC by doubling dilution, colistin sulfate-resistant E. coli 5F-1. The conditions noted are these: for In vitro minimum inhibitory concentration (MIC) of the substance alone: E. coli 5F-1, colistin sulfate-resistant, derivatives as hydrochlorides; for In vitro MIC of colistin sulfate in the presence of the substituted benzylideneguanidine derivative: E. coli 5F-1, resistant, culture comprised 20.0 ppm of the derivative (hydrochloride).

Another test concerns E. coli 4D-6. Put plainly: MIC by doubling dilution, colistin sulfate-resistant E. coli 4D-6. The conditions noted are these: for In vitro minimum inhibitory concentration (MIC) of the substance alone: E. coli 4D-6, colistin sulfate-resistant, derivatives as hydrochlorides; for In vitro MIC of colistin sulfate in the presence of the substituted benzylideneguanidine derivative: E. coli 4D-6, resistant, culture comprised 20.0 ppm of the derivative (hydrochloride).

In the next test the test system is E. coli 3H-4. Put plainly: MIC by doubling dilution, colistin sulfate-resistant E. coli 3H-4. The conditions noted are these: for In vitro minimum inhibitory concentration (MIC) of the substance alone: E. coli 3H-4, colistin sulfate-resistant, derivatives as hydrochlorides; for In vitro MIC of colistin sulfate in the presence of the substituted benzylideneguanidine derivative: E. coli 3H-4, resistant, culture comprised 20.0 ppm of the derivative (hydrochloride).

Method for E. coli 2G-7: (§1) In vitro minimum inhibitory concentrations of colistin sulfate against the strains where the cultures respectively comprised 20.0 ppm of the substituted benzylideneguanidine derivatives were also measured.
Method for E. coli 3H-4: as §1
Method for E. coli 4D-6: as §1
Method for E. coli 5F-1: as §1

As to `N=C(NN=Cc1ccc(OCc2ccccc2)cc1)NN=Cc1ccc(OCc2ccccc2)cc1` [Compound 7], the “In vitro minimum inhibitory concentration (MIC) of the substance alone” value in the test with E. coli 3Y-9, in the test with E. coli 2S-19, with E. coli 5W-7, in the test on E. coli 3B-24, in the test on E. coli 2G-7 and in the test on E. coli 5F-1 was over 800 ppm each time. Besides, the “In vitro minimum inhibitory concentration (MIC) of the substance alone” value with E. coli 4D-6 and in the test with E. coli 3H-4 was over 800 ppm each time. Also, the “In vitro MIC of colistin sulfate in the presence of the substituted benzylideneguanidine derivative” value (“In vitro MIC of colistin sulfate” for short) with E. coli 3Y-9 was determined as 2.00 ppm; in the test with E. coli 2S-19, 2.00 ppm; in the test with E. coli 5W-7 it was 1.00 ppm; in the test with E. coli 3B-24, 2.00 ppm; in the test on E. coli 2G-7 it was 8 ppm; in the test on E. coli 5F-1 it was 8 ppm. Moreover, the “In vitro MIC of colistin sulfate” value is 32 ppm in the test on E. coli 4D-6 and 8 ppm with E. coli 3H-4. For the same compound, in the test with weanling piglets, the “Average daily weight gain” value is 240 g. The Diarrhea rate in the test on weanling piglets came out at 16%. Also, in the test on weanling piglets, the Feed conversion ratio turned out to be 1.576.
With `CCC(CC)Oc1ccc(C=NN=C(N)NN=Cc2ccc(OC(CC)CC)cc2)cc1` [Compound 5], the “In vitro minimum inhibitory concentration (MIC) of the substance alone” value with E. coli 3Y-9, in the test on E. coli 2S-19, in the test on E. coli 5W-7, with E. coli 3B-24, with E. coli 2G-7 and in the test with E. coli 5F-1 was over 800 ppm in each case. In addition, the “In vitro minimum inhibitory concentration (MIC) of the substance alone” value in the test on E. coli 4D-6 and with E. coli 3H-4 was over 800 ppm each time. The “In vitro MIC of colistin sulfate” value stood at 2.00 ppm in the test with E. coli 3Y-9; 1.00 ppm in the test with E. coli 2S-19; 1.00 ppm in the test on E. coli 5W-7; 2.00 ppm in the test with E. coli 3B-24; 8 ppm in the test on E. coli 2G-7; 16 ppm with E. coli 5F-1. Moreover, the “In vitro MIC of colistin sulfate” value in the test with E. coli 4D-6 turned out to be 32 ppm; in the test with E. coli 3H-4, 8 ppm. Also, in the test on weanling piglets, the “Average daily weight gain” value stood at 231 g. Moreover, in the test with weanling piglets, the Diarrhea rate stood at 25%. For the same compound, in the test with weanling piglets, the Feed conversion ratio is on record as 1.565.
As to `COc1ccc(C=NN=C(N)NN=Cc2ccc(OC)cc2)cc1` [Compound 1], the “In vitro minimum inhibitory concentration (MIC) of the substance alone” value in the test on E. coli 3Y-9, in the test on E. coli 2S-19, in the test on E. coli 5W-7, with E. coli 3B-24, in the test with E. coli 2G-7 and with E. coli 5F-1 was over 800 ppm throughout. Moreover, the “In vitro minimum inhibitory concentration (MIC) of the substance alone” value with E. coli 4D-6 and in the test on E. coli 3H-4 was over 800 ppm each time. For the same compound, the “In vitro MIC of colistin sulfate” value with E. coli 3Y-9 was 1.00 ppm; in the test with E. coli 2S-19 it was 1.00 ppm; in the test on E. coli 5W-7, 0.50 ppm; in the test on E. coli 3B-24, 1.00 ppm; in the test on E. coli 2G-7, 1.0 ppm; with E. coli 5F-1, 2.0 ppm. For the same compound, the “In vitro MIC of colistin sulfate” value with E. coli 4D-6 is 4.0 ppm; with E. coli 3H-4 it was 2.0 ppm. Also, the “Average daily weight gain” value with weanling piglets was 243 g. In addition, the Diarrhea rate in the test on weanling piglets is given as 18%. In the test with weanling piglets, the Feed conversion ratio was determined as 1.529.
`CCCCCCCCOc1ccc(C=NNC(=N)NN=Cc2ccc(OCCCCCCCC)cc2)cc1` [Compound 4]: the “In vitro minimum inhibitory concentration (MIC) of the substance alone” value in the test on E. coli 3Y-9, in the test on E. coli 2S-19, in the test on E. coli 5W-7, in the test on E. coli 3B-24, in the test with E. coli 2G-7 and in the test on E. coli 5F-1 was over 800 ppm in each case. In addition, the “In vitro minimum inhibitory concentration (MIC) of the substance alone” value in the test on E. coli 4D-6 and in the test with E. coli 3H-4 was over 800 ppm in each case. Moreover, the “In vitro MIC of colistin sulfate” value turned out to be 1.00 ppm in the test with E. coli 3Y-9; 1.00 ppm with E. coli 2S-19; 0.50 ppm in the test with E. coli 5W-7; 1.00 ppm in the test on E. coli 3B-24; 4.0 ppm in the test on E. coli 2G-7; 8.0 ppm in the test with E. coli 5F-1. Also, the figures for the “In vitro MIC of colistin sulfate” value in the test with E. coli 4D-6 and in the test with E. coli 3H-4 were 16 ppm and 4 ppm, respectively. Besides, the “Average daily weight gain” value in the test on weanling piglets stood at 239 g. Besides, the Diarrhea rate in the test with weanling piglets stood at 19%. Also, the Feed conversion ratio in the test on weanling piglets worked out at 1.532.
In the case of `N=C(N/N=C/c1ccc(Cl)cc1)N/N=C/c1ccc(Cl)cc1` [Compound 8], the “In vitro minimum inhibitory concentration (MIC) of the substance alone” value in the test with E. coli 3Y-9, with E. coli 2S-19, in the test with E. coli 5W-7, in the test on E. coli 3B-24, in the test on E. coli 2G-7 and in the test on E. coli 5F-1 was over 800 ppm in each case. Also, the “In vitro minimum inhibitory concentration (MIC) of the substance alone” value in the test with E. coli 4D-6 and in the test with E. coli 3H-4 was over 800 ppm throughout. Moreover, the “In vitro MIC of colistin sulfate” value in the test with E. coli 3Y-9 is listed as 1.00 ppm; in the test on E. coli 2S-19, 1.00 ppm; in the test on E. coli 5W-7, 0.50 ppm; in the test on E. coli 3B-24 it was 1.00 ppm; in the test with E. coli 2G-7 it was 4 ppm; with E. coli 5F-1, 8 ppm. For the same compound, the “In vitro MIC of colistin sulfate” value with E. coli 4D-6 turned out to be 16 ppm; in the test with E. coli 3H-4 it was 4 ppm. Besides, the “Average daily weight gain” value with weanling piglets is given as 220 g. Moreover, the Diarrhea rate in the test with weanling piglets came out at 33%. In addition, in the test with weanling piglets, the Feed conversion ratio was 1.608.

For the origin of these results see patent US11116735B2, “Use of substituted benzylideneguanidine derivatives as synergists for polymyxin antibiotics” (GUANGZHOU INSIGHTER BIOTECHNOLOGY CO., LTD., priority 2015, dated 2021).
